Experimental data published in patent US7781445B2, “Synthesis of indenoisoquinoliniums and methods of use” (Purdue Research Foundation, priority 2005, dated 2010).

What was measured:
[1] = tested on: all human cancer cell lines successfully tested (approximately 55); test: COMPARE screening, mean graph midpoint (MGM); assay type: cell-based; settings: Homo sapiens, average GI50 over all cell lines tested; values outside 10^-8 to 10^-4 molar taken as the limits; read-out: MGM (mean graph midpoint for growth inhibition)
From the text: (§1) This in vitro prescreening system is based on the measurement of anticancer cytotoxicity against human cancer cell line panels consisting of approximately 60 cell lines of major human cancers (including leukemia, and slower growing tumor cells such as lung, colon, breast, skin, kidney, etc.) and is referred hereinafter as “COMPARE” screening.
(§2) COMPARE screening. The compounds described herein were examined for antiproliferative activity against the human cancer cell lines in the National Cancer Institute screen (COMPARE screening), in which the activity of each compound was evaluated with approximately 55 different cancer cell lines of diverse tumor origins. […] Therefore, the MGM value represents an overall assessment of toxicity of the compound across numerous cell lines.

SF-539 = test: COMPARE screening (NCI), GI50 in SF-539; settings: Homo sapiens, read-out: Cytotoxicity GI50, CNS SF-539
From the text: as §1, §2

SN12C = test: COMPARE screening (NCI), GI50 in SN12C; settings: Homo sapiens, SN12C, read-out: Cytotoxicity GI50, renal SN12C, renal; SN12C; concentration corresponding to 50% growth inhibition
From the text: as §1, §2

OVCAR-3 = test: COMPARE screening (NCI), GI50 in OVCAR-3; settings: Homo sapiens, OVCAR-3, read-out: Cytotoxicity GI50, ovarian OVCAR-3, ovarian; OVCAR-3; concentration corresponding to 50% growth inhibition
From the text: as §1, §2

topoisomerase I = molecular target: T1, topoisomerase I (Homo sapiens, UniProt P11387); test: Topoisomerase I-mediated DNA cleavage, 3'-end-labeled 161 bp pBluescript SK(-) fragment; assay type: biochemical; settings: for Top 1 Cleavage: tested at concentrations ranging up to 10 μM, semi-quantitative relative to compound A
T1 sequence (P11387 1-765): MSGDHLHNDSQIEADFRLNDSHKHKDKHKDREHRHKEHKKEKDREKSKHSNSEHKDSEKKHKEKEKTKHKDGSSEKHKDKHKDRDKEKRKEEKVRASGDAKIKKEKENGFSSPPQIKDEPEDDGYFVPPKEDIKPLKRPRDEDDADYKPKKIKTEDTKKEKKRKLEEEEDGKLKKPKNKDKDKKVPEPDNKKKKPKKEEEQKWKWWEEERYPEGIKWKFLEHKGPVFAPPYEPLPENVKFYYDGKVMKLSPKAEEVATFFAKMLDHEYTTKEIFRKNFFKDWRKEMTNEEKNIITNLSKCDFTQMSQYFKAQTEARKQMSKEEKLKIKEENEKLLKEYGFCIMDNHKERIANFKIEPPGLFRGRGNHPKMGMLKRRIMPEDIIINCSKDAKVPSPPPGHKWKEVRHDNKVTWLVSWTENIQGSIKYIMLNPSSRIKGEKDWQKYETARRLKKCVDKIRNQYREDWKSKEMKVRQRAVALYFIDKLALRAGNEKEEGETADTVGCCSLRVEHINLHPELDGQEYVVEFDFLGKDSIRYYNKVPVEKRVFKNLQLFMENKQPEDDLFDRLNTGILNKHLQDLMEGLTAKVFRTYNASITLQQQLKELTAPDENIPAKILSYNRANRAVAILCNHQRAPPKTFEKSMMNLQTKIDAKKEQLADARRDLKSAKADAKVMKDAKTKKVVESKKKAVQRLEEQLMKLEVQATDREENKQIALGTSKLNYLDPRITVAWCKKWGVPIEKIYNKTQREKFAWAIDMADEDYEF
Procedure: The assays were carried out at room temperature for 30 min and stopped by adding 0.5% SDS. […] Topoisomerase I was present in all reaction mixtures except for the one corresponding to the first lane.
Induction of DNA cleavage.
Labeling reactions were followed by phenol-chloroform extraction and ethanol precipitation. […] Reactions were terminated by adding 0.5% SDS.
DNA Cleavage Semiquantitative Analysis. […] The rubberband baseline correction was applied with band detection sensitivity set at 90.

MDA-MB-435 = test: COMPARE screening (NCI), GI50 in MDA-MB-435; settings: Homo sapiens, MDA-MB-435, read-out: Cytotoxicity GI50, breast MDA-MB-435, breast; MDA-MB-435; concentration corresponding to 50% growth inhibition
From the text: as §1, §2

HCT-116 = test: COMPARE screening (NCI), GI50 in HCT-116; settings: Homo sapiens, HCT-116, read-out: Cytotoxicity GI50, colon HCT-116, colon; HCT-116; concentration corresponding to 50% growth inhibition
From the text: as §1, §2

HOP-62 = test: COMPARE screening (NCI), GI50 in HOP-62; settings: Homo sapiens, HOP-62, read-out: Cytotoxicity GI50, lung HOP-62, lung; HOP-62; concentration corresponding to 50% growth inhibition
From the text: as §1, §2

UACC-62 = test: COMPARE screening (NCI), GI50 in UACC-62; settings: Homo sapiens, UACC-62, read-out: Cytotoxicity GI50, melanoma UACC-62, melanoma; UACC-62; concentration corresponding to 50% growth inhibition
From the text: as §1, §2

DU-145 = test: COMPARE screening (NCI), GI50 in DU-145; settings: Homo sapiens, DU-145, read-out: Cytotoxicity GI50, prostate DU-145, prostate; DU-145; concentration corresponding to 50% growth inhibition
From the text: as §1, §2

Structure (SMILES) | MGM (mean GI50 across cell lines) [1] | GI50 (SF-539) | GI50 (SN12C) | GI50 (OVCAR-3) | Top 1 Cleavage (topoisomerase I; Table 1) | GI50 (MDA-MB-435) | GI50 (HCT-116) | GI50 (HOP-62) | GI50 (UACC-62) | GI50 (DU-145) | Top 1 Cleavage (topoisomerase I; Table 2) | Top 1 Cleavage (topoisomerase I; Table 2, Hydrochloride) | top1-mediated DNA cleavage band at site 37 (topoisomerase I; FIG. 1, cleavage site 37) | top1-mediated DNA cleavage band at site 44 (topoisomerase I; FIG. 1, cleavage site 44)
Cl.c1c2c(cc3c1OCO3)-c1ncc3cc4c(cc3c1C2)OCO4 [Compound 9bb, 2,3-Methylenedioxy-8,9-methylenedioxy-11H-indeno[1,2-c]isoquinoline Hydrochloride] | 0.272 µM | 0.598 µM | 0.0414 µM | 0.0232 µM | ++ (++, similar activity as compound A) | < 0.01 µM | 0.283 µM | 0.227 µM | 0.19 µM | – | – | – | – | –
COc1cc2c(cc1OC)-c1ncc3cc(OC)c(OC)c(OC)c3c1C2.Cl [Compound 9ca, 1,2,3,8,9-Pentamethoxy-11H-indeno[1,2-c]isoquinoline Hydrochloride] | 19.1 µM | 14 µM | 14.4 µM | 15.9 µM | – | 16.2 µM | 31.8 µM | 34.8 µM | 7.42 µM | 21.7 µM | + (+, weak activity) | – | – | –
CC[C@@]1(O)C(=O)OCc2c1cc1n(c2=O)Cc2cc3ccccc3nc2-1 [B, camptothecin, reference compound] | – | 0.01 µM | 0.02 µM | – | – | 0.04 µM | 0.03 µM | 0.01 µM | 0.01 µM | 0.01 µM | – | – | – | –
COc1cc2c(c(OC)c1OC)-c1ncc3cc(OC)c(OC)c(OC)c3c1C2.Cl [Compound 9cc, 1,2,3,7,8,9-Hexamethoxy-11H-indeno[1,2-c]isoquinoline Hydrochloride] | 24 µM | – | 17.6 µM | 19.1 µM | – | 20.8 µM | 33.5 µM | 35.4 µM | 17.4 µM | 26.6 µM | – | 0 (0, no activity) | – | –
COc1ccc2c(c1OC)-c1ncc3cc(OC)c(OC)c(OC)c3c1C2.Cl [Compound 9ea, 1,2,3,7,8-Pentamethoxy-11H-indeno[1,2-c]isoquinoline Hydrochloride] | 13.2 µM | – | – | 0.529 µM | – | – | 8.81 µM | 16 µM | 3.84 µM | – | ++ (++, similar activity as compound A) | – | – | –
COC1=C(OC)Cc2c3c(ncc2=C1)=c1cc2c(cc1=C3)OCO2.Cl [Compound 9ab, 2,3-Dimethoxy-8,9-methylenedioxy-1H-indeno[1,2-c]isoquinoline Hydrochloride] | 0.0505 µM | < 0.01 µM | > 100 µM | – | +++ (+++ and ++++, greater activity than compound A) | < 0.01 µM | > 100 µM | 0.0721 µM | < 0.01 µM | 0.0281 µM | – | – | not seen | observed
COc1cc2c(c(OC)c1OC)-c1ncc3cc4c(cc3c1C2)OCO4.Cl [Compound 9bc, 7,8,9-Trimethoxy-2,3-methylenedioxy-11H-indeno[1,2-c]isoquinoline Hydrochloride] | 20.9 µM | – | 13.4 µM | 15.5 µM | 0 (0, no activity) | 13.2 µM | 18.8 µM | 21.7 µM | 19.3 µM | 23.2 µM | – | – | – | –
